Values joined by “and” are separate entries in the source; they are usually repeats but may differ in a detail not shown here. Equal values may be shown once.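 The compound was tested at five concentrations on cells cultured in 96-well plates, with a 48-hour exposure period. GI50 marks 50% less growth. TGI marks complete inhibition of growth.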
What was measured:
Test in all cases: inhibition of tumour cell growth, NCI panel, 48 h
HL-60(TB) leukemia = system: HL-60(TB) leukemia
HT29 colon = system: HT29 colon
KM12 colon = system: KM12 colon
M14 melanoma = system: M14 melanoma
MCF7 breast = system: MCF7 breast
NCI-H23 lung = system: NCI-H23 lung
OVCAR-3 ovarian = system: OVCAR-3 ovarian
PC-3 prostate = system: PC-3 prostate
SNB-75 CNS = system: SNB-75 CNS
U251 CNS = system: U251 CNS

| Structure (SMILES) | TGI (HL-60(TB) leukemia) | TGI (HT29 colon) | TGI (KM12 colon) | TGI (M14 melanoma) [µM] | TGI (MCF7 breast) | TGI (NCI-H23 lung) | TGI (OVCAR-3 ovarian) | TGI (PC-3 prostate) [µM] | TGI (SNB-75 CNS) | TGI (U251 CNS) | GI50 (HL-60(TB) leukemia) [µM] | GI50 (HT29 colon) [µM] | GI50 (MCF7 breast) [µM] | GI50 (NCI-H23 lung) [µM] | GI50 (KM12 colon) [µM] | GI50 (M14 melanoma) [µM] | GI50 (OVCAR-3 ovarian) [µM] | GI50 (PC-3 prostate) [µM] | GI50 (SNB-75 CNS) [µM] | GI50 (U251 CNS) [µM] |
| --- | --- | --- | --- | --- | --- | --- | --- | --- | --- | --- | --- | --- | --- | --- | --- | --- | --- | --- | --- | --- |
| O=C(c1cccs1)N1CCN(C(=O)c2cccs2)C1=S | 5.2 µM | 21 µM | 12.4 µM | 19 | 14.8 µM | 32.1 µM | 10.7 µM | 15.6 | 11.7 µM | 18.2 µM |  |  |  |  |  |  |  |  |  |  |
| Cc1ccccc1N=C(N)Nc1ccccc1C | > 100 µM | > 100 µM | > 100 µM | > 100 | > 100 µM | > 100 µM | > 100 µM | > 100 | > 100 µM | > 100 µM |  |  |  |  |  |  |  |  |  |  |
| O=C(O)COc1cc(-c2ccccc2)nc2cc(F)ccc12 | > 100 µM | > 100 µM | > 100 µM | > 100 | > 100 µM | > 100 µM | > 100 µM | > 100 | > 100 µM | > 100 µM |  |  |  |  |  |  |  |  |  |  |
| O=C(N/N=C/C=C/c1ccccc1)c1ccccc1Nc1ccccc1C(=O)N/N=C/C=C/c1ccccc1 | > 100 µM | > 100 µM | > 100 µM | > 100 | > 100 µM | > 100 µM | > 100 µM | > 100 | > 100 µM | > 100 µM |  |  |  |  |  |  |  |  |  |  |
| CN(C)CCCNc1ccc2nnn3c4ccc(O)cc4c(=O)c1c23 | > 46.9 µM | 15.6 µM | 13.5 µM | 21 | 24.8 µM | 18.3 µM | 23 µM | 17.5 | 20.2 µM | 18.7 µM |  |  |  |  |  |  |  |  |  |  |
| C/C(=N\NC(=S)N(C)C)c1cccnn1 | > 100 µM | > 100 µM | > 100 µM | > 100 | > 45 µM | > 28.2 µM | > 100 µM | > 100 | > 100 µM | > 100 µM |  |  |  |  |  |  |  |  |  |  |
| O=C1OC[C@H]2[C@@H]1[C@H]1O[C@@H]2C2=C(CCC2)C1=O | > 100 µM | > 100 µM | > 100 µM | > 100 | > 100 µM | > 100 µM | > 100 µM | > 100 | > 100 µM | > 100 µM |  |  |  |  |  |  |  |  |  |  |
| CN(Cc1cnc2nc(N)nc(N)c2n1)c1ccc(C(=O)NC(CO)CCCO)cc1 (configuration not stated) | > 100 µM | > 100 µM | > 100 µM | > 100 | > 100 µM | > 100 µM | > 100 µM | > 100 | > 100 µM | > 100 µM |  |  |  |  |  |  |  |  |  |  |
| Cc1cc2c([nH]c3ccccc32)c(O)c1-c1c(C)cc2c([nH]c3ccccc32)c1O | 55 µM | 19.5 µM | 21.7 µM | 29.8 | 25 µM | 26.8 µM | 29.3 µM | 25.9 | 27.5 µM | 23.7 µM | 32.9 | 6.04 | 11.2 | 12.4 |  |  |  |  |  |  |
| O=c1c(-c2ccccc2)c(SCCO)n(-c2ccccc2)c(=S)n1-c1ccccc1 | > 100 µM | > 100 µM | > 100 µM | > 100 | > 100 µM | > 100 µM | > 100 µM | > 100 | > 100 µM | > 100 µM |  |  |  |  |  |  |  |  |  |  |
| O=C1NC(=O)C(C(CC(=O)c2ccc(Cl)cc2)c2ccc(Cl)cc2)C(=O)N1 (configuration not stated) | > 100 µM | > 100 µM | > 100 µM | > 100 | 44.2 µM | > 100 µM | > 100 µM | > 100 | > 100 µM | > 100 µM |  |  |  |  |  |  |  |  |  |  |
| COc1ccc(OC)c(SC(CC(=O)c2ccccc2)c2ccccc2)c1 (configuration not stated) | > 100 µM | 35.8 µM | 15.2 µM | 31 | 13.7 µM | 33.3 µM | 16.4 µM | 33.9 | 33.6 µM | 31 µM |  |  |  |  |  |  |  |  |  |  |
| COc1ccc2[nH]c(O)c(/C=c3/cc4c(c(-c5ccc(F)c(OC)c5)n3)=Nc3ccccc3-4)c2c1 | 35.1 µM | 4 µM | 7.3 µM | 4.15 | 4.44 µM | 38.2 µM | 3.58 µM | 38.4 | 3.56 µM | 3.21 µM | 14.4 | 2.03 | 1.76 | 4.68 | 2.58 | 2 | 1.99 | 8.11 | 1.56 | 1.7 |
| CC(C)(C)[Si](C)(C)OCc1cccc(OCCOc2cccc(CO[Si](C)(C)C(C)(C)C)c2[N+](=O)[O-])c1[N+](=O)[O-] | > 100 µM | > 100 µM | > 100 µM | > 100 | > 100 µM | > 100 µM | > 100 µM | > 100 | > 100 µM | > 100 µM |  |  |  |  |  |  |  |  |  |  |
| CN1CC2=C(NC(=S)NC2c2ccccc2)/C(=C/c2ccccc2)C1 (configuration not stated) | > 10 µM | 71.7 µM | 68 µM | 56.6 | > 100 µM | > 100 µM | > 100 µM | > 100 | > 100 µM | > 100 µM |  |  |  |  |  |  |  |  |  |  |
| CN(C)Cc1cc(C(=O)/C=C/c2ccccc2)cc(CN(C)C)c1O | 42.3 µM | 41.4 µM | 33.8 µM | 63.1 | > 100 µM | > 100 µM | 99.1 µM | 36.9 | > 100 µM | > 100 µM |  |  |  |  |  |  |  |  |  |  |
| Cc1nn(-c2ccccc2)c(C)c1/C=N/N=C1\S/C(=C\c2ccc(Cl)cc2)C(=O)N1c1ccccc1 | 24.4 µM | > 100 µM | > 100 µM | > 100 | > 100 µM | > 100 µM | > 100 µM | > 100 | 71.8 µM | > 100 µM |  |  |  |  |  |  |  |  |  |  |
| CC1=C2C(=CO[C@H](C)[C@H]2C)C(=O)C(C(=O)O)=C1O | 59 µM and 25.7 µM | 63.9 µM and 88.9 µM | 87.5 µM and 48.8 µM | 60.9 | 52.8 µM and 51.9 µM | 71.4 µM and 58.4 µM | 43.2 µM and 47 µM | > 85.3 | 111 µM and > 62.1 µM | 43.4 µM and 41 µM | 25.3 | 18.3 | 24.5 | 24.1 | 19.2 |  | 20.2 |  | 21.2 | 18.8 |
| N#Cc1cc2c(n(C3OC(CO)C(O)C(O)C3O)c1=S)CCCCCC2 (configuration not stated) | > 100 µM | > 100 µM | > 100 µM | > 100 | > 100 µM | > 100 µM | > 100 µM | > 100 | > 100 µM | > 100 µM |  |  |  |  |  |  |  |  |  |  |
| CCOC(=O)Nn1c(CC#N)nnc1Cc1ccccc1 | > 100 µM | > 100 µM | > 100 µM | > 100 | > 100 µM | > 100 µM | > 100 µM | > 100 | > 100 µM | > 100 µM |  |  |  |  |  |  |  |  |  |  |
| CCc1cc2c(c3c1CCCC3=O)CC1(Cc3ccc(C(=O)OC)cc3C1)C2 (configuration not stated) | 55.4 µM | > 100 µM | > 100 µM | > 100 | > 100 µM | > 100 µM | > 100 µM | > 100 | > 100 µM | > 100 µM |  |  |  |  |  |  |  |  |  |  |
| CC(C)(C)OC(=O)NCC(CNC(=O)OC(C)(C)C)c1nc(C(N)=O)cs1 | > 100 µM | > 100 µM | > 100 µM | > 100 | > 100 µM | > 100 µM | > 100 µM | > 100 | > 100 µM | > 100 µM |  |  |  |  |  |  |  |  |  |  |
| CC(=O)NC1C(OCc2ccccc2)OC(CO)C(O)C1OC(C)C(=O)NC(C(=O)NC(CCC(=O)NCCCCNc1c2ccccc2nc2cccc([N+](=O)[O-])c12)C(N)=O)C(C)C (configuration not stated) | 6.77 µM | 8.71 µM | 7.68 µM | 3.32 | > 44 µM | 4.75 µM | 6.14 µM | > 30.8 | 10.5 µM | > 56.7 µM |  |  |  |  |  |  |  |  |  |  |
| C=C=C(CC(CC(=C)Br)(C(=O)OC)C(=O)OC)S(=O)(=O)c1ccccc1 | > 100 µM | 2.95 µM | 5.81 µM | 4.3 | 16.4 µM | 6.33 µM | 4.98 µM | 4.31 | 20.5 µM | 2.95 µM |  |  |  |  |  |  |  |  |  |  |
| O=C1c2c(O)cccc2-c2nn(CCNCCO)c3ccc(NCCNCCO)c1c23 | 0.123 µM | 13.1 µM | 7.73 µM | 2.02 | 3.15 µM | 0.592 µM | 5.86 µM | 2.16 | 1.14 µM | 0.195 µM |  |  |  |  |  |  |  |  |  |  |
| C=CC[n+]1c2ccccc2n2cc([N+](=O)[O-])ccc21 | 50.3 µM | 39.4 µM | > 100 µM | > 100 | 79.8 µM | 43 µM | 69.7 µM | > 100 | > 100 µM | > 100 µM |  |  |  |  |  |  |  |  |  |  |
| O=C(Nc1ccccc1C(=O)NCc1ccccc1)/C(=C/c1ccccc1)NC(=O)c1ccccc1 | > 100 µM | > 100 µM | > 100 µM | > 100 | > 100 µM | > 100 µM | > 100 µM | > 100 | > 100 µM | > 100 µM |  |  |  |  |  |  |  |  |  |  |
| Cc1nc(N)c(N2CCN(CN)CC2)c(=O)[nH]1 | > 100 µM | > 100 µM | > 100 µM | > 100 | > 100 µM | > 100 µM | > 100 µM | > 100 | > 100 µM | > 100 µM |  |  |  |  |  |  |  |  |  |  |

Reference: PubChem BioAssay (NCI)
